Experiments:
C57BL/6 hepatocytes = assay type: cell-based
Method: FIGS. 16A-16F. In vivo activated allogeneic CTLs require target hepatocyte ASMase for efficient killing ex vivo. Hepatocytes, isolated as described in Example 1, were coincubated with splenic T cells harvested from lethally-irradiated wild type C57BL/6 recipients 10-14 days following transplantation of LP BM+T cells. FIG. 16A: 2×10^6 GvH-activated CTLs were coincubated with 0.5×10^6 wild type C57BL/6 or B6.MRL.1pr (FasR^−/−) hepatocytes (left panel) in complete medium for 16 hr. […] Apoptosis was quantified following fixation by nuclear bisbenzimide staining. FIG. 16B: asmase^−/− hepatocytes are resistant to apoptosis induced by GvH-activated CTLs. CTL coincubation was performed as in FIG. 16A and apoptosis was quantified 16 hr thereafter. FIG. 16C: Representative images of asmase^+/+ (top left panel) and asmase^−/− (bottom left panel) C57BL/6 hepatocytes following 10 min coincubation in suspension with 2×10^6 GvH-activated T cells. Hepatocytes were fixed and stained with DAPI and Cy-3-labelled anti-ceramide mAb as described in Example 1. Arrows indicate ceramide-rich platform generation on the outer leaflet of the plasma membrane. […] FIG. 16D: Quantification of ceramide-rich platforms in asmase^+/+ and asmase^−/− hepatocytes following incubation with 2×10^6 GvH-activated CTLs. […] Apoptosis was quantified as in FIG. 16A. […] 0.5×10^6 wild type hepatocytes, preincubated with 50 μg/mL nystatin for 30 min and resuspended in RPMI containing 1% lipid-free FBS, were coincubated with 2×10^6 GvH-activated T cells and apoptosis was quantified as in FIG. 16A. […]
To assess whether ceramide-mediated raft clustering into membrane platforms is an essential component of cytolytic T cell (CTL)-induced apoptosis of hepatocytes, we blocked raft clustering pharmacologically and examined the impact on alloactivated CTL-induced hepatocyte apoptosis in vitro. […] Co-incubation induced increased hepatocyte apoptosis from a baseline of 4.7±0.7% to 33.8±1.9% by 16 hr, as detected by nuclear morphologic changes (FIG. 16A). […]

splenic T cells [1] = assay: Activation-induced cell death (AICD) assay, T cell apoptosis; assay type: cell-based, mouse; details: 500 nM; 16 hr
From the text: To define a role for target cell ASMase in AICD, asmase^+/+, asmase^−/− or MRL.1pr (FasR^−/−) T cells were stimulated for 24 hr with 10 microgam/ml ConA, washed, rested in medium containing 20 U/ml rIL-2 for 24 hr, and finally AICD was initiated by restimulation in medium containing 20 U/ml rIL-2 and increasing concentrations of plate bound anti-CD3 mAb for 24 hr. AICD induction by anti-CD3 mAb conferred ceramide-rich platform generation 4 hr following stimulation (FIG. 19D), evident in 26.4±1.6% of the population of asmase^+/+ T cells compared to 5.1±1.0% of asmase^−/− T cells (p<0.005). Confocal analysis identified colocalization of the sphingolipid GM1 (FIG. 19E) and Fas within ceramide-rich platforms in asmase^+/+ T cells.
To characterize the impact of platform generation on AICD, asmase^+/+ and asmase^−/− T cells were induced to undergo AICD and apoptosis was quantified 16 hr thereafter. Apoptosis in asmase^+/+ T cells was anti-CD3 mAb dose-dependent, reaching 32.9±5.2% apoptosis 16 hr post induction (FIG. 19F). […]
Harvested splenocytes were enriched for T lymphocytes by nylon wool passage, resulting in >90% purity based upon FITC-CD3 mAb staining by flow cytometry. […] Cells were subsequently fixed, stained with 25 μl of 24 μg/ml bis-benzimide trihydrochloride solution (Hoechst #33258; Sigma-Aldrich, Milwaukee Wisc.) and apoptosis was quantified by fluorescence microscopy, as above.

C57BL/6 splenocytes = assay: Platform generation on target splenocytes coincubated with MLR-primed CTLs; details: 500 nM
splenic T cells [2] = assay: Platform generation in T cells after AICD induction; details: 500 nM; not shown

## CCCCCCCCCCCCC/C=C/[C@@H](O)[C@H](CO)NC(=O)CCCCCCCCCCCCCCC [C16-ceramide]
C57BL/6 hepatocytes
  rescue of CTL-induced apoptosis in nystatin-treated hepatocytes: unable to overcome cholesterol chelation
Splenic T cells [1]
  apoptosis of asmase−/− T cells stimulated to undergo AICD: completely restored
C57BL/6 splenocytes
  platform generation on asmase−/− target splenocytes: restored
Splenic T cells [2]
  platform generation in asmase−/− T cells stimulated to undergo AICD: completely restored

— patent publication US12121525B2, “Methods for treating GI syndrome and graft versus host disease” (Sloan Kettering Institute for Cancer Research, priority 2007, dated 2024)
